This note sets out measurements from patent publication US20130029970A1 (priority 2009, published 2013).

The target in the assay is T1, recombinant human cannabinoid receptor CB1 (Homo sapiens, UniProt P21554).
T1 construct: (cDNA clone) CNR01L000
In words: Cannabinoid receptor radioligand binding assay, [3H]-CP 55,940 displacement, hCB1. In a few lines:
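Displacement of 0.5 nM [3H]-CP 55,940 (1 μM unlabeled CP 55,940 for nonspecific) measured by filtration and scintillation counting. Binding ran 90 min at room temperature in pH 7.5 Tris buffer with 0.1% fatty-acid-free BSA, using recombinant hCB1 HEK-293 membranes at 2-10 μg protein.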

pIC50: −log10 of the molar value. Where only a bound is given, the exact number is not on record here.

T1 sequence (P21554 whole entry): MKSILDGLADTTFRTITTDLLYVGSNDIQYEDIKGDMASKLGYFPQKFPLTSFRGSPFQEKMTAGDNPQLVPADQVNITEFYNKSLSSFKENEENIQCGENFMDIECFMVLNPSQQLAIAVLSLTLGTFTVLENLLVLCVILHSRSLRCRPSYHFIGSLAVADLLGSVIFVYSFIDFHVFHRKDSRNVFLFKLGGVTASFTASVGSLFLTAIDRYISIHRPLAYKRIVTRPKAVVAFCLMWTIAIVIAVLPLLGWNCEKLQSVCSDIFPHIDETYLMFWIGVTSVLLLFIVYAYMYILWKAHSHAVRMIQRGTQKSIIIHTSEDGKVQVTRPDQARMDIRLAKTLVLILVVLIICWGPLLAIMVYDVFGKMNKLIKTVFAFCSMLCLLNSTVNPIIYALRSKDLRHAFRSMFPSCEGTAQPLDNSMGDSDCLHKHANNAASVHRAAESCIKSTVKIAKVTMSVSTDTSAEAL

Regarding `C=Cn1c(C)cc2cc(C(=O)c3cccc(Cl)c3Cl)sc21` [Comp 29], the pIC50 is under 5.00.

With `Cc1cc2cc(C(=O)c3cccc(Cl)c3Cl)sc2n1CCN1CCOCC1` [Compound 1, (2,3-dichlorophenyl)(5-methyl-6-(2-morpholinoethyl)-6H-thieno[2,3-b]pyrrol-2-yl)methanone], the pIC50 is 6.00 to 7.00.

Consider `CCCn1c(C)cc2cc(C(=O)c3cccc(Cl)c3Cl)sc21` [Compound 3, (2,3-Dichlorophenyl)(5-methyl-6-propyl-6H-thieno[2,3-b]pyrrol-2-yl)methanone], for which the pIC50 was 5.00 to 6.00.

Turning to `Cc1cc2cc(C(=O)c3ccccc3Cl)sc2n1CCN1CCOCC1` [Compound 5, (2-Chlorophenyl)(5-methyl-6-(2-morpholinoethyl)-61-1-thieno[2,3-b]pyrrol-2-yl)methanone], the pIC50 is 6.00 to 7.00.

For the compound `Cc1cc2cc(C(=O)c3ccc(Cl)cc3)sc2n1CCN1CCOCC1` [Compound 6, (4-Chlorophenyl)(5-methyl-6-(2-morpholinoethyl)-6H-thieno[2,3-b]pyrrol-2-yl)methanone], the pIC50 was 5.00 to 6.00.

For the compound `Cc1cc2cc(C(=O)c3cccc(F)c3F)sc2n1CCN1CCOCC1` [Compound 8, (2,3-Difluorophenyl)(5-methyl-6-(2-morpholinoethyl)-6H-thieno[2,3-b]pyrrol-2-yl)methanone], the pIC50 was 5.00 to 6.00.

In the case of `Cc1cc2cc(C(=O)c3ccc(Cl)c(Cl)c3)sc2n1CCN1CCOCC1` [Compound 9, (3,4-Dichlorophenyl)(5-methyl-6-(2-morpholinoethyl)-6H-thieno[2,3-b]pyrrol-2-yl)methanone], the pIC50 was 5.00 to 6.00.

With `Cc1cc2cc(C(=O)c3cccc4c3OCC4)sc2n1CCN1CCOCC1` [Compound 11, (2,3-Dihydrobenzofuran-7-yl)(5-methyl-6-(2-morpholinoethyl)-6H-thieno[2,3-b]pyrrol-2-yl)methanone], the pIC50 was 6.00 to 7.00.

Take `COc1ccccc1C(=O)c1cc2cc(C)n(CCN3CCOCC3)c2s1` [Compound 13, (2-Methoxyphenyl)(5-methyl-6-(2-morpholinoethyl)-6H-thieno[2,3-b]pyrrol-2-yl)methanone]: the pIC50 was 6.00 to 7.00.

`Cc1cc2cc(C(=O)c3cccnc3Cl)sc2n1CCN1CCOCC1` [Compound 17, (2-Chloropyridin-3-yl)(5-methyl-6-(2-morpholinoethyl)-6H-thieno[2,3-b]pyrrol-2-yl)methanone]: the negative-log IC50 (pIC50) is under 5.00.

As to `Cc1cc2cc(C(=O)c3cccc(Cl)c3Cl)sc2n1CCC1CCOCC1` [Compound 18, (2,3-Dichlorophenyl)(5-methyl-6-(2-(tetrahydro-2H-pyran-4-yl)ethyl)-6H-thieno[2,3-b]pyrrol-2-yl)methanone], the pIC50 was 6.00 to 7.00.

Take `COCCn1c(C)cc2cc(C(=O)c3cccc(Cl)c3Cl)sc21` [Compound 21, (2,3-Dichlorophenyl)(6-(2-methoxyethyl)-5-methyl-6H-thieno[2,3-b]pyrrol-2-yl)methanone]: the pIC50 is 6.00 to 7.00.

As to `Cc1cc2cc(C(=O)c3cccc(Cl)c3Cl)sc2n1CCN1CCCCC1` [Compound 23, (2,3-Dichlorophenyl)(5-methyl-6-(2-(piperidin-1-yl)ethyl)-6H-thieno[2,3-b]pyrrol-2-yl)methanone], the pIC50 was 6.00 to 7.00.

Turning to `Cc1cc2cc(C(=O)c3cccc(Cl)c3Cl)sc2n1CC1CCCCN1C` (centres unmarked) [Compound 24, (2,3-Dichlorophenyl)(5-methyl-6((1-methylpiperidin-2-yl)methyl)-6H-thieno[2,3-b]pyrrol-2-yl)methanone], the pIC50 is 6.00 to 7.00.

For the compound `Cc1cc2cc(C(=O)c3cccc(Cl)c3Cl)sc2n1CCN1CCCC1` [Compound 28, (2,3-Dichlorophenyl)(5-methyl-6-(2-(pyrrolidin-1-yl)ethyl)-6H-thieno[2,3-b]pyrrol-2-yl)methanone], the pIC50 was 6.00 to 7.00.

Regarding `COc1ccc(C(=O)c2cc3cc(C)n(CCN4CCOCC4)c3s2)cc1` [Compound 36, (4-methoxyphenyl)(5-methyl-6-(2-morpholinoethyl)-6H-thieno[2,3-b]pyrrol-2-yl)methanone], the pIC50 was 5.00 to 6.00.

Take `Cc1cc2cc(C(=O)c3cccc(Cl)c3Cl)sc2n1S(=O)(=O)N(C)C` [Compound 41, 2-(2,3-Dichlorobenzoyl)-N,N,5-trimethyl-6H-thieno[2,3-b]pyrrole-6-sulfonamide]: the pIC50 is 6.00 to 7.00.

`Cc1cc2cc(C(=O)c3ccccc3N)sc2n1CCN1CCOCC1` [Compound 48, (2-Aminophenyl)(5-methyl-6-(2-morpholinoethyl)-6H-thieno[2,3-b]pyrrol-2-yl)methanone]: the pIC50 was under 5.00.

With `COCCn1c(C)cc2cc(C(=O)c3ccc(OC)cc3)sc21` [Compound 49, (6-(2-Methoxyethyl)-5-methyl-6H-thieno[2,3-b]pyrrol-2-yl)(4-methoxyphenyl)methanone], the pIC50 is under 5.00.

Consider `COc1ccc(C(=O)c2cc3cc(C)n(CCN4CCOC4=O)c3s2)cc1` [Compound 50, 3-(2-(2-(4-Methoxybenzoyl)-5-methyl-6H-thieno[2,3-b]pyrrol-6-yl)ethyl)oxazolidin-2-one], for which the pIC50 was under 5.00.

For the compound `CCOc1ccc(C(=O)c2cc3cc(C)n(CCN4CCOCC4)c3s2)cc1` [Compound 55, (4-Ethoxyphenyl)(5-methyl-6-(2-morpholinoethyl)-6H-thieno[2,3-b]pyrrol-2-yl)methanone], the pIC50 is 5.00 to 6.00.

For the compound `Cc1cc2cc(C(=O)c3ccc(N(C)C)cc3)sc2n1CCN1CCOCC1` [Compound 59, (4-(Dimethylamino)phenyl)(5-methyl-6-(2-morpholinoethyl)-6H-thieno[2,3-b]pyrrol-2-yl)methanone], the pIC50 is under 5.00.

Turning to `Cc1cc2cc(C(=O)c3ccc(F)cc3Cl)sc2n1CCN1CCOCC1` [Compound 64, (2-Chloro-4-fluorophenyl)(5-methyl-6-(2-morpholinoethyl)-6H-thieno[2,3-b]pyrrol-2-yl)methanone], the pIC50 is 5.00 to 6.00.

`Cc1cc2cc(C(=O)c3ccc(OC(F)(F)F)cc3)sc2n1CCN1CCOCC1` [Compound 65, (5-Methyl-6-(2-morpholinoethyl)-6H-thieno[2,3-b]pyrrol-2-yl)(4-(trifluoromethoxy)phenyl)methanone]: the pIC50 was 5.00 to 6.00.

For `COc1ccc(C(=O)c2cc3cc(C)n(CCN4CCOCC4)c3s2)c(F)c1` [Compound 68, (2-Fluoro-4-methoxyphenyl)(5-methyl-6-(2-morpholinoethyl)-6H-thieno[2,3-b]pyrrol-2-yl)methanone], the pIC50 is 5.00 to 6.00.

`COc1ccc(C(=O)c2cc3cc(C)n(CCNS(C)(=O)=O)c3s2)cc1` [Compound 71, N-(2-(2-(4-Methoxybenzoyl)-5-methyl-6H-thieno[2,3-b]pyrrol-6-yl)ethyl)methanesulfonamide]: the pIC50 was under 5.00.

Take `CCOC(=O)CCn1c(C)cc2cc(C(=O)c3ccc(OC)cc3)sc21` [Compound 72, Ethyl 3-(2-(4-methoxybenzoyl)-5-methyl-6H-thieno[2,3-b]pyrrol-6-yl)propanoate]: the pIC50 was under 5.00.

Turning to `Cc1ccc(C(=O)c2cc3cc(C)n(CCN4CCOCC4)c3s2)c(F)c1` [Compound 80, (2-Fluoro-4-methylphenyl)(5-methyl-6-(2-morpholinoethyl)-6H-thieno[2,3-b]pyrrol-2-yl)methanone], the pIC50 is 5.00 to 6.00.

Take `COc1ccc(C(=O)c2cc3cc(C)n(CCN4CCCC4)c3s2)cc1` [Compound 83, (4-Methoxyphenyl)(5-methyl-6-(2-(pyrrolidin-1-yl)ethyl)-6H-thieno[2,3-b]pyrrol-2-yl)methanone]: the pIC50 was 5.00 to 6.00.

What is called pIC50 is the negative decadic logarithm of the IC50, by convention in mol/L.
